Laboratory results taken from patent EP1148124A1 (priority 1999, dated 2000).
Read-outs that look alike come from different tables or passages of the source.

Assays:
[1] = system: aryl hydrocarbon receptor; experiment: Luciferase assay for clone selection (Example 2), firefly luciferase ligand responsive reporter gene
[2] = Reporter assay (No. 2), cell number reporter gene (sea pansy luciferase, pRL-TK), clone of Example 3; format: cell-based; details: mouse, hepa1c1c7 cells
Procedure: For the measured values of the amount of expression of the cell number reporter gene, a ratio is determined of the measured value in the test substance added group to the measured value in the only solvent added group (control group). When the ratio is, for example, in the range of 0.8 to 1.2, the measured value of the amount of expression of the ligand responsive reporter gene in the test substance added group is selected for evaluating the agonist or antagonist activity of the test substance against the ability of a ligand responsive transcriptional regulatory factor to promote transcription. When the ratio takes a small value such as smaller than 0.8, for example, it is possible that the test substance has cytotoxicity. In contrast, when the ratio takes a large value such as greater than 1.2, for example, it is possible that the test substance has activity against the transcriptional regulatory system of a gene without mediation of a ligand responsive transcriptional regulatory factor. However, the range of this ratio suitable for selecting the measured value of the amount of expression of the […] reporter gene may vary depending on certain properties of the present cells used and the conditions of measurement, and it is not limited to the above examples of numerical values.
Separately, the ligand responsive reporter gene containing plasmid pGV-Ya-XREx5 constructed in Example 1 was digested with Bam HI. Further, the cell number reporter gene containing plasmid pRL-TK (marketed by Toyo Ink) was digested with Bam HI, and the neomycin resistance (aminoglycoside phosphotransferase) gene containing plasmid pRc/RSV (available from INVITROGEN) was digested with Hind III. These three digested plasmids, i.e., Bam HI digested pGV-Ya-XREx5 (5.6 µg), Bam HI digested pRL-TK (5.6 µg), and Hind III digested pRc/RSV (1 µg), were mixed with 600 µl of αMEM medium (mixture C), while 72 µl of lipofectin (available from GIBCO-BRL) was mixed with 600 µl of αMEM medium (mixture D). After being left at room temperature for 30 minutes, mixtures C and D were combined together and left at room temperature for 10 minutes. After the Hepalclc7 cells cultured overnight as described above were then washed once with αMEM medium, there was added a half volume of a solution prepared by adding and mixing additional 10.8 ml of αMEM medium into the above mixture (C + D). Culturing of the resulting mixture was carried out for 5 hours. The medium was then replaced with 10% serum containing αMEM medium, followed by further culturing for 2 days. Subsequently, the cells were scratched from the petri dishes and collected, and the collected cells were suspended in 10% serum containing αMEM medium to have the total volume of 100 ml. The resulting cell suspension was plated on 96-well plates at a ratio of 100 µl/well. After these plates were cultured overnight, a medium prepared by dissolving G418 in 10% serum containing αMEM medium to have a concentration of 3.2 mg/ml was added at a ratio of 100 µl/well (G418 final concentration 1.6 mg/ml). Culturing was further continued, during which the medium was replaced with 10% serum containing αMEM medium containing 800 µg/ml G418 at a rate of once per 4 to 5 days. The volume of the medium was set at 200 µl/well. […] To the first plate, only DMSO was added (solvent control), and to the second plate, 3-MC dissolved in DMSO was added so that the final concentration of 3-MC in the second plate came to 2 µm per well. The first and second plates were then cultured overnight. In this case, the DMSO or the solution of 3-MC in DMSO was added so that the final concentration of DMSO in each well came to 0.04%. The third plate was further cultured as the master plate. From each well of each plate, to which DMSO or 3-MC had been added, the medium was removed, and the wells were washed twice with PBS(-). […]

Ah receptor = experiment: Reporter assay (No. 2), ligand responsive reporter gene (firefly luciferase, pGV-Ya-XREx5), clone of Example 3; format: cell-based, mouse
[3] = final conc. 1 nM, about 6 hours
[4] = final conc. 10 nM, about 6 hours
[5] = final conc. 100 nM, about 6 hours
[6] = final conc. 1000 nM, about 6 hours
[7] = final conc. 10000 nM, about 6 hours
[8] = final conc. 50000 nM, about 6 hours

Cc1ccc2cc3c(ccc4ccccc43)c3c2c1CC3 [3-MC, 3-methylcholanthrene]
increase in the expression of the firefly luciferase gene by the addition of 3-MC [1]: about 10 times

c1ccc2c(c1)cc1ccc3cccc4ccc2c1c34 [Benzo[a]pyrene, benzo[a]pyrene]
viability at 6 h, 0.001 µM ([2]; final conc. 1 nM, about 6 hours, ratio to 0 nM, read-out: Amount of luminescence by sea pansy luciferase (from pRL-TK) Ratio): 90%
viability at 6 h, 0.01 µM ([2]; final conc. 10 nM, about 6 hours, ratio to 0 nM, read-out: Amount of luminescence by sea pansy luciferase (from pRL-TK) Ratio): 90%
viability at 6 h, 0.1 µM ([2]; final conc. 100 nM, about 6 hours, ratio to 0 nM, read-out: Amount of luminescence by sea pansy luciferase (from pRL-TK) Ratio): 80%
viability at 6 h, 1 µM ([2]; final conc. 1000 nM, about 6 hours, ratio to 0 nM, read-out: Amount of luminescence by sea pansy luciferase (from pRL-TK) Ratio): 90%
viability at 6 h, 10 µM ([2]; final conc. 10000 nM, about 6 hours, ratio to 0 nM, read-out: Amount of luminescence by sea pansy luciferase (from pRL-TK) Ratio): 80%
viability at 6 h, 50 µM ([2]; final conc. 50000 nM, about 6 hours, ratio to 0 nM, read-out: Amount of luminescence by sea pansy luciferase (from pRL-TK) Ratio): 80%
Amount of luminescence by firefly luciferase (from pGV-Ya-XREx5) Measured value (Ah receptor; [3]): 0.414 x 10^2
Amount of luminescence by firefly luciferase (from pGV-Ya-XREx5) Ratio (Ah receptor; final conc. 1 nM, about 6 hours, ratio to 0 nM): 1.7
Amount of luminescence by firefly luciferase (from pGV-Ya-XREx5) Measured value (Ah receptor; [4]): 0.928 x 10^2
Amount of luminescence by firefly luciferase (from pGV-Ya-XREx5) Ratio (Ah receptor; final conc. 10 nM, about 6 hours, ratio to 0 nM): 3.7
Amount of luminescence by firefly luciferase (from pGV-Ya-XREx5) Measured value (Ah receptor; [5]): 1.72 x 10^2
Amount of luminescence by firefly luciferase (from pGV-Ya-XREx5) Ratio (Ah receptor; final conc. 100 nM, about 6 hours, ratio to 0 nM): 6.9
Amount of luminescence by firefly luciferase (from pGV-Ya-XREx5) Measured value (Ah receptor; [6]): 3.12 x 10^2
Amount of luminescence by firefly luciferase (from pGV-Ya-XREx5) Ratio (Ah receptor; final conc. 1000 nM, about 6 hours, ratio to 0 nM): 12
Amount of luminescence by firefly luciferase (from pGV-Ya-XREx5) Measured value (Ah receptor; [7]): 4.54 x 10^2
Amount of luminescence by firefly luciferase (from pGV-Ya-XREx5) Ratio (Ah receptor; final conc. 10000 nM, about 6 hours, ratio to 0 nM): 18
Amount of luminescence by firefly luciferase (from pGV-Ya-XREx5) Measured value (Ah receptor; [8]): 5.76 x 10^2
Amount of luminescence by firefly luciferase (from pGV-Ya-XREx5) Ratio (Ah receptor; final conc. 50000 nM, about 6 hours, ratio to 0 nM): 23

C[C@@H]1C[C@H]2[C@@H]3CCC4=CC(=O)C=C[C@]4(C)[C@@]3(F)[C@@H](O)C[C@]2(C)[C@@]1(O)C(=O)CO [Dexamethasone, dexamethasone]
viability at 6 h, 0.001 µM [2]: 100%
viability at 6 h, 0.01 µM [2]: 100%
viability at 6 h, 0.1 µM [2]: 90%
viability at 6 h, 1 µM [2]: 80%
viability at 6 h, 10 µM [2]: 100%
viability at 6 h, 50 µM [2]: 110%
Amount of luminescence by firefly luciferase (from pGV-Ya-XREx5) Measured value (Ah receptor; [3]): 3.71 x 10^2
Amount of luminescence by firefly luciferase (from pGV-Ya-XREx5) Measured value (Ah receptor; [4]): 3.54 x 10^2
Amount of luminescence by firefly luciferase (from pGV-Ya-XREx5) Measured value (Ah receptor; [5]): 3.39 x 10^2
Amount of luminescence by firefly luciferase (from pGV-Ya-XREx5) Measured value (Ah receptor; [6]): 3.22 x 10^2
Amount of luminescence by firefly luciferase (from pGV-Ya-XREx5) Measured value (Ah receptor; [7]): 3.53 x 10^2
Amount of luminescence by firefly luciferase (from pGV-Ya-XREx5) Measured value (Ah receptor; [8]): 3.73 x 10^2
Amount of luminescence by firefly luciferase (from pGV-Ya-XREx5) Ratio (Ah receptor; hepa1c1c7 cells, 6 h, 0.001 µM): 1.3
Amount of luminescence by firefly luciferase (from pGV-Ya-XREx5) Ratio (Ah receptor; hepa1c1c7 cells, 6 h, 0.01 µM): 1.2
Amount of luminescence by firefly luciferase (from pGV-Ya-XREx5) Ratio (Ah receptor; hepa1c1c7 cells, 6 h, 0.1 µM): 1.2
Amount of luminescence by firefly luciferase (from pGV-Ya-XREx5) Ratio (Ah receptor; hepa1c1c7 cells, 6 h, 1 µM): 1.1
Amount of luminescence by firefly luciferase (from pGV-Ya-XREx5) Ratio (Ah receptor; hepa1c1c7 cells, 6 h, 10 µM): 1.2
Amount of luminescence by firefly luciferase (from pGV-Ya-XREx5) Ratio (Ah receptor; hepa1c1c7 cells, 6 h, 50 µM): 1.3
